Like-named read-outs stand apart in the source and are kept apart here.
Tests used:
[1] = test system: P. falciparum 3D7; assay: [3H]-hypoxanthine growth inhibition, modified HCO3- or O2; format: cell-based; details: for IC50: Plasmodium falciparum
[2] = test system: P. falciparum 3D7 trophozoites; assay: Metabolomic fingerprint profiling LC-MS; format: cell-based, Plasmodium falciparum; set-up: UDP-D-glucose / ADP-D-glucose: unit not given here; details: for Acetyllysine / N-acetyl-L-ornithine / N-carbamoyl-L-aspartate / NADPH / dAMP / dCMP / dTDP / dTMP / dTTP / dihydroorotate / orotate / DLH / DLS/SDL/SID / PD / PEE / PVNF / 3-phosphoglycerate / ADP-D-glucose / ATP / CDP / D-sedoheptulose-1/7-phosphate / FAD / GMP / NAD+ / NADP+ / Octoluse Bisphosphate / Pyroglutamic acid / UDP-D-glucose / UDP-D-glucuronate / UDP-N-acetyl-glucosamine / UDP / UMP / UTP / a-ketoglutarate / citrate/isocitrate / cytidine / dATP / dGMP/AMP / fumarate / glucose-1/6-phosphate / glycerate / guanine / guanosine / hypoxanthine / indole / inosine / nicotinate / ornithine / phosphoenolpyruvate / pyruvate / ribose-phosphate / sarcosine/alanine / sn-glycerol-3-phosphate / succinate/methylmalonic acid / uridine / xanthosine: S2 Table Metabolomics; for Acetyllysine: metabolite Acetyllysine; for N-acetyl-L-ornithine: metabolite N-acetyl-L-ornithine; for N-carbamoyl-L-aspartate: metabolite N-carbamoyl-L-aspartate; for NADPH: metabolite NADPH; for dAMP: metabolite dAMP; for dCMP: metabolite dCMP; for dTDP: metabolite dTDP; for dTMP: metabolite dTMP; for dTTP: metabolite dTTP; for dihydroorotate: metabolite dihydroorotate; for orotate: metabolite orotate; for DLH: peptide DLH; for DLS/SDL/SID: peptide DLS/SDL/SID; for PD: peptide PD; for PEE: peptide PEE; for PVNF: peptide PVNF; for 3-phosphoglycerate: metabolite 3-phosphoglycerate; for ADP-D-glucose: metabolite ADP-D-glucose; for ATP: metabolite ATP; for CDP: metabolite CDP; for CDP / D-sedoheptulose-1/7-phosphate / GMP / Octoluse Bisphosphate / UDP / UMP / UTP / citrate/isocitrate / dGMP/AMP / fumarate / glucose-1/6-phosphate / glycerate / guanine / guanosine / inosine / pyruvate / sarcosine/alanine / succinate/methylmalonic acid / uridine / xanthosine: change in metabolite level after compound treatment; for D-sedoheptulose-1/7-phosphate: metabolite D-sedoheptulose-1/7-phosphate; for FAD: metabolite FAD; for GMP: metabolite GMP; for NAD+: metabolite NAD+; for NADP+: metabolite NADP+; for Octoluse Bisphosphate: metabolite Octoluse Bisphosphate; for Pyroglutamic acid: metabolite Pyroglutamic acid; for UDP-D-glucose: metabolite UDP-D-glucose; for UDP-D-glucuronate: metabolite UDP-D-glucuronate; for UDP-N-acetyl-glucosamine: metabolite UDP-N-acetyl-glucosamine; for UDP: metabolite UDP; for UMP: metabolite UMP; for UTP: metabolite UTP; for a-ketoglutarate: metabolite a-ketoglutarate; for citrate/isocitrate: metabolite citrate/isocitrate; for cytidine: metabolite cytidine; for dATP: metabolite dATP; for dGMP/AMP: metabolite dGMP/AMP; for fumarate: metabolite fumarate; for glucose-1/6-phosphate: metabolite glucose-1/6-phosphate; for glycerate: metabolite glycerate; for guanine: metabolite guanine; for guanosine: metabolite guanosine; for hypoxanthine: metabolite hypoxanthine; for indole: metabolite indole; for inosine: metabolite inosine; for 2_3-Diphosphoglyceric acid / 4-phosphopantothenate / 6-phospho-D-gluconate / FMN / IMP / Pyrophosphate / Sedoheptoluse bisphosphate / cyclic-AMP / glutathione disulfide / lactate / myo-inositol: metabolite level change after treatment; for nicotinate: metabolite nicotinate; for ornithine: metabolite ornithine; for phosphoenolpyruvate: metabolite phosphoenolpyruvate; for pyruvate: metabolite pyruvate; for ribose-phosphate: metabolite ribose-phosphate; for sarcosine/alanine: metabolite sarcosine/alanine; for sn-glycerol-3-phosphate: metabolite sn-glycerol-3-phosphate; for succinate/methylmalonic acid: metabolite succinate/methylmalonic acid; for uridine: metabolite uridine; for xanthosine: metabolite xanthosine
[3] = test system: P. falciparum; assay: EC50 listed in S2 Table Metabolomics (used to set the concentration tested); format: cell-based; details: Plasmodium falciparum, read-out: EC50_nM
[4] = 3D7, read-out: P. falciparum 3D7 IC50 HCO3- (2g/L), standard media
[5] = 3D7, HCO3- reduced media, read-out: P. falciparum 3D7 IC50 HCO3- reduced
[6] = EC50 used for Factor_XEC50 in metabolomics

With `CNCCCNc1ccnc2cc(Cl)ccc12` [MMV020500] the “fold change (IC50reduced/IC50normal)” value [1] was 3.9, the IC50 [1, 4] was 0.04 µM and the IC50 [1, 5] was 0.155 µM. For the same compound, the Acetyllysine [2] was -2.213, the N-acetyl-L-ornithine [2] was -0.8185 and the N-carbamoyl-L-aspartate [2] was 0.6081. The NADPH [2] was 0.8295, the dAMP [2] was 1.814 and the dCMP [2] was 0.8961. For the same compound, the dTDP [2] was 0.7101, the dTMP [2] was 2.186 and the dTTP [2] was -0.2992. The dihydroorotate [2] was 0.1598, the orotate [2] was 0.0865 and the DLH [2] was -2.137. The DLS/SDL/SID [2] was -0.7574, the PD [2] was -1.597 and the PEE [2] was -0.2916. For the same compound, the PVNF [2] was -1.612, the 3-phosphoglycerate [2] was 0.07452 and the ADP-D-glucose [2] was -0.08737. For the same compound, the ATP [2] was -0.9785, the CDP [2] was 0.5532 and the D-sedoheptulose-1/7-phosphate [2] was 1.176. For the same compound, the FAD [2] was -0.249, the GMP [2] was 1.138 and the “NAD+” value [2] was 0.8214. For the same compound, the “NADP+” value [2] was -0.06525, the “Octoluse Bisphosphate” value [2] was -0.4524 and the Pyroglutamic acid [2] was 0.1099. The UDP-D-glucose [2] was -0.02951, the UDP-D-glucuronate [2] was -0.3318 and the UDP-N-acetyl-glucosamine [2] was 0.05445. It also gave a UDP [2] of 0.8779, a UMP [2] of 0.5345 and a UTP [2] of -0.9493. For the same compound, the a-ketoglutarate [2] was 0.1415, the citrate/isocitrate [2] was -0.9893 and the cytidine [2] was -0.1492. The dATP [2] was -0.4735, the dGMP/AMP [2] was 1.367 and the fumarate [2] was -0.1707. The glucose-1/6-phosphate [2] was -0.009969, the glycerate [2] was -0.6605 and the guanine [2] was 0.2615. It also gave a guanosine [2] of -0.1451, a hypoxanthine [2] of -0.2256 and an indole [2] of -0.03127. For the same compound, the inosine [2] was 0.04049, the 2_3-Diphosphoglyceric acid [2] was -0.286 and the 4-phosphopantothenate [2] was 0.7597. The 6-phospho-D-gluconate [2] was 0.1729, the FMN [2] was 0.009843 and the IMP [2] was 0.8224. It also gave a Pyrophosphate [2] of -0.4794, a Sedoheptoluse bisphosphate [2] of -0.0186 and a cyclic-AMP [2] of 0.9961. It also gave a glutathione disulfide [2] of -0.1428, a lactate [2] of -0.3926 and a myo-inositol [2] of -0.6279. It also gave a nicotinate [2] of 0.7754, an ornithine [2] of -0.4966 and a phosphoenolpyruvate [2] of 0.07414. For the same compound, the pyruvate [2] was -0.1857, the ribose-phosphate [2] was -0.6716 and the sarcosine/alanine [2] was -0.5483. It also gave a sn-glycerol-3-phosphate [2] of -0.4228, a succinate/methylmalonic acid [2] of 0.4498 and a uridine [2] of -0.2827. For the same compound, the xanthosine [2] was -0.8962 and the EC50 [3, 6] was 0.0822 µM.
With `COc1ccc(-c2nc(NC(=O)CS(=O)(=O)c3ccc(F)cc3)sc2C)cc1` [MMV665915] the “fold change (IC50reduced/IC50normal)” value [1] was 2.4, the IC50 [1, 4] was 0.192 µM and the IC50 [1, 5] was 0.464 µM. It also gave an Acetyllysine [2] of -0.1771, a N-acetyl-L-ornithine [2] of -0.3059 and a N-carbamoyl-L-aspartate [2] of 0.053. The NADPH [2] was 0.1215, the dAMP [2] was -0.4653 and the dCMP [2] was -0.2866. The dTDP [2] was 0.07665, the dTMP [2] was 0.08902 and the dTTP [2] was -0.1721. For the same compound, the dihydroorotate [2] was -0.4672, the orotate [2] was -0.4189 and the DLH [2] was 0.071. For the same compound, the DLS/SDL/SID [2] was -0.2498, the PD [2] was -0.3229 and the PEE [2] was -0.02112. The PVNF [2] was 0.02436, the 3-phosphoglycerate [2] was -0.875 and the ADP-D-glucose [2] was -0.2338. It also gave an ATP [2] of -0.08026, a CDP [2] of 0.2353 and a D-sedoheptulose-1/7-phosphate [2] of 0.2732. The FAD [2] was -0.2366, the GMP [2] was -0.6644 and the “NAD+” value [2] was -0.2604. The “NADP+” value [2] was -0.1454, the “Octoluse Bisphosphate” value [2] was -0.3427 and the Pyroglutamic acid [2] was 0.2622. For the same compound, the UDP-D-glucose [2] was -0.2684, the UDP-D-glucuronate [2] was -0.1851 and the UDP-N-acetyl-glucosamine [2] was -0.3241. For the same compound, the UDP [2] was 0.1227, the UMP [2] was -0.7313 and the UTP [2] was -0.06326. It also gave an a-ketoglutarate [2] of -0.1843, a citrate/isocitrate [2] of 0.1306 and a cytidine [2] of -0.25. For the same compound, the dATP [2] was -0.1264, the dGMP/AMP [2] was -0.5258 and the fumarate [2] was -0.3392. It also gave a glucose-1/6-phosphate [2] of -0.6162, a glycerate [2] of -0.5026 and a guanine [2] of -0.3726. The guanosine [2] was -0.4353, the hypoxanthine [2] was 0.151 and the indole [2] was 0.2601. The inosine [2] was -0.1084, the 2_3-Diphosphoglyceric acid [2] was -0.3692 and the 4-phosphopantothenate [2] was -0.3105. For the same compound, the 6-phospho-D-gluconate [2] was -0.535, the FMN [2] was -0.2195 and the IMP [2] was -0.3295. The Pyrophosphate [2] was -0.0001746, the Sedoheptoluse bisphosphate [2] was -0.2854 and the cyclic-AMP [2] was -0.3638. The glutathione disulfide [2] was -0.4248, the lactate [2] was -0.1885 and the myo-inositol [2] was -0.6665. It also gave a nicotinate [2] of -0.4616, an ornithine [2] of -0.3065 and a phosphoenolpyruvate [2] of -0.5464. The pyruvate [2] was -0.3441, the ribose-phosphate [2] was -0.3706 and the sarcosine/alanine [2] was -0.5111. For the same compound, the sn-glycerol-3-phosphate [2] was -0.2801, the succinate/methylmalonic acid [2] was -0.2666 and the uridine [2] was -0.2088. For the same compound, the xanthosine [2] was -0.3176 and the EC50 [3, 6] was 0.448 µM.
With `CCC1(C)CC(CCNCc2ccccc2O)(c2ccc(C)cc2)CCO1` (stereo not drawn) [MMV019406] the “fold change (IC50normal/ IC50hypoxia)” value [1] was 2.3, the IC50 ([1]; 3D7, read-out: P. falciparum 3D7 IC50 1% O2) was 0.236 µM and the IC50 ([1]; 3D7, read-out: P. falciparum 3D7 IC50 5% O2) was 0.54 µM. It also gave an Acetyllysine [2] of -2.519, a N-acetyl-L-ornithine [2] of -1.511 and a N-carbamoyl-L-aspartate [2] of -2.298. The NADPH [2] was 0.4736, the dAMP [2] was 0.284 and the dCMP [2] was -0.09039. The dTDP [2] was 0.1057, the dTMP [2] was 0.004037 and the dTTP [2] was -0.4082. The dihydroorotate [2] was -2.242, the orotate [2] was -1.534 and the DLH [2] was -2.275. The DLS/SDL/SID [2] was -1.841, the PD [2] was -2.354 and the PEE [2] was -2.262. For the same compound, the PVNF [2] was -2.251, the 3-phosphoglycerate [2] was -0.1564 and the ADP-D-glucose [2] was -0.3945. For the same compound, the ATP [2] was -0.512, the CDP [2] was 0.05599 and the D-sedoheptulose-1/7-phosphate [2] was -0.4162. The FAD [2] was -0.02006, the GMP [2] was -0.3975 and the “NAD+” value [2] was 0.008417. For the same compound, the “NADP+” value [2] was -0.1427, the “Octoluse Bisphosphate” value [2] was -0.6015 and the Pyroglutamic acid [2] was 0.2098. It also gave a UDP-D-glucose [2] of -0.0942, a UDP-D-glucuronate [2] of -0.3214 and a UDP-N-acetyl-glucosamine [2] of -0.03854. For the same compound, the UDP [2] was -0.04555, the UMP [2] was -0.1795 and the UTP [2] was -0.2654. The a-ketoglutarate [2] was -0.6947, the citrate/isocitrate [2] was 0.006162 and the cytidine [2] was 0.3562. The dATP [2] was 0.258, the dGMP/AMP [2] was 0.2244 and the fumarate [2] was -1.313. It also gave a glucose-1/6-phosphate [2] of -0.1461, a glycerate [2] of -0.1204 and a guanine [2] of -0.06557. For the same compound, the guanosine [2] was -0.1693, the hypoxanthine [2] was 0.07201 and the indole [2] was -0.04528. For the same compound, the inosine [2] was -0.2118, the 2_3-Diphosphoglyceric acid [2] was -0.5043 and the 4-phosphopantothenate [2] was -0.1061. For the same compound, the 6-phospho-D-gluconate [2] was -0.2502, the FMN [2] was -0.1097 and the IMP [2] was -0.4258. The Pyrophosphate [2] was -0.3998, the Sedoheptoluse bisphosphate [2] was -0.4722 and the cyclic-AMP [2] was -0.5498. The glutathione disulfide [2] was -0.423, the lactate [2] was -0.2201 and the myo-inositol [2] was -0.4627. The nicotinate [2] was 0.2145, the ornithine [2] was -0.4607 and the phosphoenolpyruvate [2] was -0.0532. It also gave a pyruvate [2] of 0.03561, a ribose-phosphate [2] of -0.5159 and a sarcosine/alanine [2] of -1.233. For the same compound, the sn-glycerol-3-phosphate [2] was -0.3535, the succinate/methylmalonic acid [2] was -0.02906 and the uridine [2] was -0.4944. It also gave a xanthosine [2] of -0.9536 and an EC50 [3] of 0.142 µM.
